Here are results for 2 compounds from patent publication US20070196885A1, “Method of determining carbonic anhydrase i activity” (YAMASA CORPORATION, priority 2004, published 2007).

The structures appear in SMILES notation.

What all share (format): biochemical
Test [1] addresses T1, human CAI (Homo sapiens, UniProt P00915). As to the kind of experiment: Hydrolase activity, o-nitrophenyl acetate substrate, no inhibitor (Example 1). To be noted: 25-μg/mL human CAI solution, 9 mM substrate solution, pH 8, room temperature, five minutes. The method, then:
(§1) o-Nitrophenyl acetate was employed as a substrate having higher reactivity with CAI than with CAII, and no inhibitor was used.
(§2) • (1) By use of purified water, a 25-μg/mL human CAI solution and a 5-μg/mL human CAII solution were prepared. • (2) A 30 mM dimethyl malonate buffer (pH: 8) was provided. • (3) By use of purified water, a 9 mM o-nitrophenyl acetate solution was prepared. Before dissolution in water, the substrate had been dissolved in advance in acetone. […] Specifically, solutions of (1), (2), and (3) (each 50 μL) were mixed, and the mixture was allowed to react at room temperature for five minutes. Absorbance of the mixture was measured at 405 nm before and after reaction, and change in absorbance (ΔA) was calculated.
(§3) In order to prepare a sample reference, only purified water was used as solution (1). The reference was allowed to react in the same manner as above, and absorbance of the mixture was measured at 405 nm before and after reaction, whereby change in absorbance of the reference was determined. The change in absorbance intrinsic to CA was calculated by the following equation:
(§4) <Calculation> Change in CA-intrinsic absorbance=ΔA1−ΔA3; wherein
(§5) ΔA1 represents change in absorbance of a sample consisting of solutions (1), (2), and (3), and
(§6) ΔA3 represents change in absorbance of a sample consisting of reference solution (1) and solutions (2) and (3).

Test [2] has as its target T2, human CAII (Homo sapiens, UniProt P00918). Described as above. To be noted: 5-μg/mL human CAII solution, 9 mM substrate solution, pH 8, room temperature, five minutes. The method, then:
as §1, §2, §3, §4, §5, §6

For test [3], the target named is T1, human CAI. As to the kind of experiment: Hydrolase activity with AEBSF and formaldehyde (Example 3). Conditions: 25-μg/mL human CAI solution; 9 mM substrate solution; 0.1 mM AEBSF and 50 mM formaldehyde; pH 8, room temperature, five minutes. The method, then:
(§7) o-Nitrophenyl acetate was employed as a substrate having higher reactivity with CAI than with CAII. In addition, 4-(2-aminoethyl)benzenesulfony fluoride (AEBSF) serving as an inhibitor inhibiting a hydrolase other than CA, and formaldehyde serving as an enhancer of the inhibitor were employed.
(§8) • (1) By use of purified water, a 25-μg/mL human CAI solution and a 5-μg/mL human CAII solution were prepared. • (2) A 30 mM dimethyl malonate buffer (pH: 8) including 0.1 mM AEBSF, and 50 mM formaldehyde were provided. • (3) By use of purified water, a 9 mM o-nitrophenyl acetate solution was prepared. Before dissolution in water, the substrate had been dissolved in advance in acetone. […] Absorbance of the mixture was measured at 405 nm before and after reaction, and change in absorbance (ΔA) was calculated.
as §3, §4
(§9) ΔA1 represents change in absorbance of a sample consisting of solution (1), solution (2), and solution (3), and […]

The target in test [4] is T2, human CAII. The description is as above. Conditions: 5-μg/mL human CAII solution; 9 mM substrate solution; 0.1 mM AEBSF and 50 mM formaldehyde; pH 8, room temperature, five minutes. The method, then: as §7, §8, §3, §4, §9
For test [5], the target named is T1, human CAI. As to the kind of experiment: Acetazolamide-inhibited hydrolase activity (Example 5). Conditions: for Absorbance change (CA-intrinsic, inhibited by acetazolamide, 405 nm): 25-μg/mL human CAI solution, 3 mM acetazolamide solution, pH 8, room temperature, five minutes; for reactivity of substrate with CAI relative to reactivity with CAII: used in combination with acetazolamide (Example 5, Table 3). An excerpt:
(§10) o-Nitrophenyl acetate was employed as a substrate having higher reactivity with CAI than with CAII. As an inhibitor, acetazolamide, which inhibits both CAI and CAII, was used in combination. A reference substrate was produced from p-nitrophenyl acetate—a substrate having low specificity to CAI (reactive with both CAI and CAII)—and the above acetazolamide serving as a CA inhibitor in combination.
(§11) • (1) By use of purified water, a 25-μg/mL human CAI solution and a 5-μg/mL human CAII solution were prepared. • (2) A 3 mM acetazolamide solution was prepared by use of a 30 mM dimethyl malonate buffer (pH 8). Before dissolution in the buffer, acetazolamide had been dissolved in advance in dimethyl sulfoxide (DMSO). Thus, the solution has a DMSO content of 0.15% (v/v). • (3) By use of purified water, a 6 mM o-nitrophenyl acetate solution and a 3 mM p-nitrophenyl acetate solution were prepared. Before dissolution in water, each substrate had been dissolved in advance in acetone. […] Specifically, solutions of (1), (2), and (3) (each 50 μL) were mixed, and the mixture was allowed to react at room temperature for five minutes. Absorbance of the mixture was measured at 405 nm before and after reaction, and change in absorbance (ΔA) was calculated.
(§12) In order to prepare a sample reference and an inhibitor reference, only purified water and 0.15% (v/v) DMSO-containing 30 mM dimethyl malonate buffer were used as reference solutions (1) and (2), respectively. Each of the references was allowed to react in the same manner as above, and absorbance of the mixture was measured, whereby change in absorbance of the reference was determined.
(§13) <Calculation> Change in CA-intrinsic absorbance=[ΔA1−ΔA3]−[ΔA2−ΔA4]; wherein • ΔA1 represents change in absorbance of a sample consisting of solution (1), reference solution (2), and solution (3); • ΔA2 represents change in absorbance of a sample consisting of solutions (1), (2), and (3); • ΔA3 represents change in absorbance of a sample consisting of reference solutions (1) and (2), and solution (3); and • ΔA4 represents change in absorbance of a sample consisting of reference solution (1) and solutions (2) and (3). <Results>

For test [6], the target named is T2, human CAII. Described as above. Conditions: 5-μg/mL human CAII solution, 3 mM acetazolamide solution, pH 8, room temperature, five minutes.
From the text: as §10, §11, §12, §13

Test [7] addresses T1, human CAI. As to the kind of experiment: Iodide-inhibited hydrolase activity, o-nitrophenyl acetate (Example 9). To be noted: 25-μg/mL human CAI solution; 9 mM o-nitrophenyl acetate solution; 300 mM potassium iodide solution; pH 8, room temperature, five minutes. The method, then: (§14) o-Nitrophenyl acetate was used as a substrate having higher reactivity with CAI than with CAII, and in combination, an iodide ion (I^−) was used as a CA inhibitor inhibiting CAI more potently than CAII.
(§15) • (1) By use of purified water, a 25-μg/mL human CAI solution and a 5-μg/mL human CAII solution were prepared. • (2) A 300 mM potassium iodide solution was prepared by use of a 30 mM dimethyl malonate buffer (pH 8). • (3) By use of purified water, a 9 mM o-nitrophenyl acetate solution was prepared. Before dissolution in water, the substrate had been dissolved in advance in acetone. […] Absorbance of the mixture was measured at 405 nm before and after reaction, and change in absorbance (ΔA) was calculated.
(§16) In order to prepare a sample reference and an inhibitor reference, only purified water and 30 mM dimethyl malonate buffer were used as reference solutions (1) and (2), respectively. Each of the references was allowed to react in the same manner as employed above, and absorbance of the mixture was measured, whereby change in absorbance of the reference was determined. […]

In test [8] the target is T2, human CAII. Described as above. Conditions: 5-μg/mL human CAII solution; 9 mM o-nitrophenyl acetate solution; 300 mM potassium iodide solution; pH 8, room temperature, five minutes. The method, then:
as §14, §15, §16

The target of test [9] is T1, human CAI. As to the kind of experiment: Iodide-inhibited hydrolase activity, p-nitrophenyl acetate (Example 7). Conditions: 25-μg/mL human CAI solution; 3 mM p-nitrophenyl acetate solution; 3 mM potassium iodide solution; pH 8, room temperature, five minutes. The method, then:
(§17) p-Nitrophenyl acetate serving as a substrate reacting with both CAI and CAII and an iodide (I^−) serving as a CA inhibitor inhibiting CAI more potently than CAII were employed in combination.
as §2, with “(2) A 3 mM potassium iodide solution was prepared by use of a 30 mM” for “(2) A 30 mM”, “malonate buffer (pH 8). • (3)” for “malonate buffer (pH: 8) was provided. • (3)”, “water, a 3 mM p-nitrophenyl” for “water, a 9 mM o-nitrophenyl”, “3 mM p-nitrophenyl acetate solution” for “9 mM o-nitrophenyl acetate solution”
as §16

Test [10] deals with T2, human CAII. Described as above. Conditions: 5-μg/mL human CAII solution; 3 mM p-nitrophenyl acetate solution; 3 mM potassium iodide solution; pH 8, room temperature, five minutes. The method, then:
as §17
as §2, with “(2) A 3 mM potassium iodide solution was prepared by use of a 30 mM” for “(2) A 30 mM”, “malonate buffer (pH 8). • (3)” for “malonate buffer (pH: 8) was provided. • (3)”, “water, a 3 mM p-nitrophenyl” for “water, a 9 mM o-nitrophenyl”, “3 mM p-nitrophenyl acetate solution” for “9 mM o-nitrophenyl acetate solution”
as §16

[11] abbreviates: 6 mM o-nitrophenyl acetate solution.
Setting [12] is: 3 mM p-nitrophenyl acetate solution.

T1 sequence (P00915 whole entry): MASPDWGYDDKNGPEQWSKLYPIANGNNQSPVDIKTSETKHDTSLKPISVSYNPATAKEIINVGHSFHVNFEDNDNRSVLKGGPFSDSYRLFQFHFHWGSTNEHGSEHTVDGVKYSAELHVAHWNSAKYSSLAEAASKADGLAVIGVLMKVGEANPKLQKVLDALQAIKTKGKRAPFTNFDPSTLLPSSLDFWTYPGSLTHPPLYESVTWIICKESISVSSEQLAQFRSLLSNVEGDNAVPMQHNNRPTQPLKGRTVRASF

On to `CC(=O)Oc1ccccc1[N+](=O)[O-]` [o-Nitrophenyl acetate, o-nitrophenyl acetate], for which the “Absorbance change (CA-intrinsic, 405 nm)” value at human CAI [1] was determined as 0.511; at human CAII [2] it was 0.011; on human CAI [3], 0.329; at human CAII [4], 0.008. Also, the “Absorbance change (CA-intrinsic, inhibited by acetazolamide, 405 nm)” value on human CAI [5] (setting [11]) was found to be 0.285; at human CAII [6] (setting [11]) it was 0.004. Moreover, the “reactivity of substrate with CAI relative to reactivity with CAII” value on human CAI [5] was “higher than twice the reactivity with CAII”. For the same compound, the “Absorbance change (CA-intrinsic, inhibited by iodide, 405 nm)” value amounted to 0.504 at human CAI [7] and 0.009 on human CAII [8].
For `CC(=O)Oc1ccc([N+](=O)[O-])cc1` [p-Nitrophenyl acetate, p-nitrophenyl acetate], the “Absorbance change (CA-intrinsic, inhibited by acetazolamide, 405 nm)” value on human CAI [5] (setting [12]) worked out at 0.283; on human CAII [6] (setting [12]), 0.162. Also, the “reactivity of substrate with CAI relative to reactivity with CAII” value on human CAI [5] was “lower than twice the reactivity with CAII”. The “Absorbance change (CA-intrinsic, inhibited by iodide, 405 nm)” value on human CAI [9] is 0.052; at human CAII [10] it was 0.005.
